Experimental data: US6800659B2, “Compounds for modulating cell proliferation” (HSC Research and Development Limited Partnership, priority 2000, dated 2004)

Experiments:
OCl-LY2 lymphoma cells = assay: Colony growth of OCl-LY2 lymphoma cells in methylcellulose culture; assay type: cell-based; conditions: colonies at 5 days (FIG. 7)
Procedure: OCl-LY2 cells were plated in 1 ml volumes, in the absence of exogenous growth factors, into 35 mm petri dishes (Nunc, Gibco) containing IMDM (OCl, Toronto) plus 20% human cord blood plasma in 0.9% (vol/vol) methylcellulose (Fluka, Switzerland) and the indicated doses of CR4. Cultures were set at 37° C., 5% CO2 in a humidified atmosphere. Colonies consisting of more than 20 cells were counted at 5 days or earlier using an inverted microscope.

[1] = test system: Philadelphia positive Z119 acute lymphoblastic leukemia cells; assay: Colony growth of Z119 ALL cells in methylcellulose culture; assay type: cell-based, human; conditions: low nanomolar doses; colonies at 7 days (FIG. 3)
Procedure: Z119 cells were plated in 1 ml volumes at a density of 1×10^4 cells/ml, in the absence of exogenous growth factors, into 35 mm petri dishes (Nunc, Gibco) containing IMDM (OCl, Toronto) plus 20% FCS (Cansera Rexdale, ON.) in 0.9% (vol/vol) methylcellulose (Fluka, Switzerland) with the indicated concentration of CR4. Cultures were set at 37° C., 5% CO2 in a humidified atmosphere. Colonies consisting of more than 20 cells were counted at 7 days or earlier using an inverted microscope.

Compound: N#C/C(=C\C=C\c1ccc(O)c(O)c1)C(=O)NCc1ccccc1 [CR4, (E,E)-2-(benzylaminocarbonyl)-3-(3,4-dihydroxystyryl)acrylonitrile]
- inhibition at 2.5 µM (OCl-LY2 lymphoma cells; 120 h, 2.5 μM, read-out: inhibition of cell proliferation and survival): 90%
- inhibition of cell proliferation and survival (OCl-LY2 lymphoma cells; high nanomolar to low micromolar doses): significantly inhibited
- inhibition of Z119 ALL cell proliferation and survival [1]: significant inhibition
